Read-outs that look alike come from different tables or passages of the source.
How the values were obtained:
[1] = tested on: mice of strain CD1; assay: Anoxia test on mice under low (oxygen) pressure conditions; format: in vivo; details: Mus musculus, ip, intraperitoneally 10 minutes before the test, 190 mm of mercury (5.25% of oxygen), read-out: MAD (mean active dose, the dose which increases the survival time by 100%)
Method: Anoxia test on mice under low (oxygen) pressure conditions
Mice of strain CD1 are kept in an atmosphere depleted in oxygen, by producing a partial vacuum (190 mm of mercury, corresponding to 5.25% of oxygen).
The survival time of the animals is noted. This time is increased by agents capable of assisting tissue oxygenation and in particular cerebral oxygenation. The compounds studied are administered in several doses intraperitoneally 10 minutes before the test. The percentage increases in the survival time relative to the values obtained with control animals are calculated. The mean active dose (MAD), the dose which increases the survival time by 100%, is determined graphically.

[2] = Acute toxicity (LD50) in mice; format: in vivo; details: mouse, in vivo, mice, compounds tested in a solution containing ascorbic acid; for LD50 at 168 h: oral, mortality over 7 days
Method: (§1) The compounds were administered orally to mice of the CD1 strain. The mortality was recorded over 7 days and the 50% lethal doses (LD50) were determined graphically.
(§2) The toxicities on intraperitoneal and intravenous administration were determined in accordance with the method of Miller and Taniter (Proc. Soc. Exp. Biol. Med. 1944- vol 57, page 261).

[3] = Solubility in water (remark in preparation example); format: physicochemical; details: base
[4] = tested on: mice of the CD1 strain; assay: Acute toxicity (LD50) in mice; format: in vivo
Method: as §1, §2

[5] = intravenous, read-out: LD50 intravenous
[6] = ip, intraperitoneal, read-out: LD50 intraperitoneal

| SMILES | ED (100% increase in survival time) [1] | LD50 [2, 5] | water solubility [3] | LD50 [2, 6] | LD50 at 168 h [2] | resorption by the digestive tract ([4]; inferred from oral/intravenous LD50 ratio) | ratio of the LD50 for oral administration to the LD50 for intravenous administration ([4]; mice, oral/intravenous) |
| --- | --- | --- | --- | --- | --- | --- | --- |
| CC[C@]12CCCN3CCc4c(n(c5ccccc45)[C@@](O)(C(=O)OC)C1)[C@@H]32 [Vincamine, reference compound] | 8 mg/kg | 75 mg/kg | – | – | – | – | – |
| CCC12CCCN3CCc4c(n(c5ccccc45)C(C(=O)NC4CCC4)C1)C32 (stereo not shown) [SLD 142, N-cyclobutyldesoxyvincaminamide] | 0.5 mg/kg | – | – | – | – | – | – |
| CCC12CCCN3CCc4c(n(c5ccccc45)C(C(=O)NC4CC4)C1)C32 (stereo not shown) [SLD 105, N-cyclopropyldesoxyvincaminamide] | 1 mg/kg | 76 mg/kg | water-insoluble | 165 mg/kg | 290 mg/kg | good | low |
| CCC12C=C(C(=O)NC3CC3)n3c4c(c5ccccc53)CCN(CCC1)C42 (stereo not shown) [SLD 121, N-monocyclopropylapovincaminamide] | 2.5 mg/kg | – | – | – | – | – | – |
| CCC12CCCN3CCc4c(n(c5ccccc45)C(C(=O)NC4CCCCC4)C1)C32 (stereo not shown) [S.L.D. 135, N-cyclohexyldesoxyvincaminamide] | – | – | water-insoluble | – | – | – | – |
| CCC12CCCN3CCc4c(n(c5ccccc45)C(C(N)=O)C1)C32 (stereo not shown) [SLC 156, Desoxyvincaminamide] | 1.8 mg/kg | 109 mg/kg | – | 210 mg/kg | 607 mg/kg | – | – |
